Reference: US10780092B2, “Fused pyrazine derivatives useful as soluble guanylate cyclase stimulators” (Merck Sharp & Dohme Corp., priority 2016, dated 2020)

Assays:
sGC α1/β1 heterodimer = sGC α1/β1 heterodimer (Homo sapiens (Human), UniProt Q02108+Q02153); experiment: Cell-based sGC functional assay (CASA assay), cGMP by HTRF; conditions: CHO-K1/sGC cells; for Emax: CHO-K1, cGMP production as percentage of maximum of compound A (set to 100%), read-out: % Activation; for EC50: inflection point of cGMP production, 4P fit, read-out: IP
Outline: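 CHO-K1 cells stably expressing human sGC α1/β1, with 0.5 mM IBMX, pre-incubated ±1 μM DETA-NO 30 min at 25° C, then compound 1 hr at 37° C (2.5% DMSO). cGMP by HTRF; activation as % of reference activator maximum, 4P fit giving inflection point and maximum […].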

[1] = target: human recombinant sGC enzyme (Homo sapiens (Human), UniProt Q02108+Q02153); experiment: SEC competition binding assay with [3H] Compound B radioligand; conditions: displacement of 1.6 nM [3H] Compound B, 24 h at 37° C.
Outline: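 Recombinant human sGC incubated with 1.6 nM [3H] Compound B and test compounds for 24 h at 37° C. Buffer: 50 mM triethanolamine pH 7.4, 3 mM MgCl2, 0.025% BSA, 2 mM DTT, 300 μM DETA/NO, 400 μM GTP, 1% DMSO. Bound ligand separated by gel filtration and counted by scintillation; non-specific binding with 1 μM Compound B; Ki from one-site fit.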

SMILES | Emax (sGC α1/β1 heterodimer) [%] | EC50 (sGC α1/β1 heterodimer) [nM] | Ki [1] [nM]
CCCCc1nc(-c2nc(N)c3c(n2)NC(=O)C3(C)c2ccc(F)c(O)c2)cn2ncnc12 (stereo not drawn) [Example 62-B, 4-Amino-2-(8-butyl-[1,2,4]triazolo[1,5-a]pyrazin-6-yl)-5-(4-fluoro-3-hydroxyphenyl)-5-methyl-5,7-dihydro-6H-pyrrolo[2,3-d]pyrimidin-6-one] | 97 | 49 | 2.21
CC1(c2ccc(Cl)c(O)c2)C(=O)Nc2nc(-c3cn4ccnc4c(CCC4CCCCC4)n3)nc(N)c21 (stereo not drawn) [Example 63-A, 4-Amino-5-(4-chloro-3-hydroxyphenyl)-2-(8-(2-cyclohexylethyl)imidazo[1,2-a]pyrazin-6-yl)-5-methyl-5,7-dihydro-6H-pyrrolo[2,3-d]pyrimidin-6-one] | 121 | 600 | 2.2
CC(C)CCc1nc(-c2nc(N)c3c(n2)NC(=O)C3(C)c2ccc(C(F)(F)F)c(O)c2)cn2ccnc12 (stereo not drawn) [Example 64-B, 4-Amino-5-(3-hydroxy-4-(trifluoromethyl)phenyl)-2-(8-isopentylimidazo[1,2-a]pyrazin-6-yl)-5-methyl-5,7-dihydro-6H-pyrrolo[2,3-d]pyrimidin-6-one] | 125 | 1320 | 2.22
CC1(c2ccc(Cl)c(O)c2)C(=O)Nc2nc(-c3cn4ccnc4c(CCC(F)(F)C(F)(F)F)n3)nc(N)c21 (stereo not drawn) [Example 65-A, 4-Amino-5-(4-chloro-3-hydroxyphenyl)-5-methyl-2-(8-(3,3,4,4,4-pentafluorobutyl)imidazo[1,2-a]pyrazin-6-yl)-5,7-dihydro-6H-pyrrolo[2,3-d]pyrimidin-6-one] | 85 | 797 | 2.26
CC1(c2ccc(O)c(Cl)c2)C(=O)Nc2nc(-c3cn4ncnc4c(Cc4ccc(F)cc4)n3)nc(N)c21 (stereo not drawn) [Example 66-B, 4-Amino-5-(3-chloro-4-hydroxyphenyl)-2-{8-[(4-fluorophenyl)methyl]-[1,2,4]triazolo[1,5-a]pyrazin-6-yl}-5-methyl-5,7-dihydro-6H-pyrrolo[2,3-d]pyrimidin-6-one] | 141 | 2150 | 2.57
CC1(c2ccc(Cl)c(O)c2Cl)C(=O)Nc2nc(-c3cn4ncnc4c(CC4CCCCC4)n3)nc(N)c21 (stereo not drawn) [Example 67-A, 4-Amino-2-(8-(cyclohexylmethyl)-[1,2,4]triazolo[1,5-a]pyrazin-6-yl)-5-(2,4-dichloro-3-hydroxyphenyl)-5-methyl-5,7-dihydro-6H-pyrrolo[2,3-d]pyrimidin-6-one] | 134 | 728 | 2.65
CCCCc1nc(-c2nc(N)c3c(n2)NC(=O)C3(C)c2cccc(O)c2)cn2ncnc12 (stereo not drawn) [Example 68-B, 4-Amino-2-(8-butyl-[1,2,4]triazolo[1,5-a]pyrazin-6-yl)-5-(3-hydroxyphenyl)-5-methyl-5,7-dihydro-6H-pyrrolo[2,3-d]pyrimidin-6-one] | 96 | 46 | 2.92
CC1(c2ccc(Cl)c(O)c2Cl)C(=O)Nc2nc(-c3cn4ccnc4c(CC4CCCCC4)n3)nc(N)c21 (stereo not drawn) [Example 69-A, 4-Amino-2-(8-(cyclohexylmethyl)imidazo[1,2-a]pyrazin-6-yl)-5-(2,4-dichloro-3-hydroxyphenyl)-5-methyl-5,7-dihydro-6H-pyrrolo[2,3-d]pyrimidin-6-one] | 108 | 1380 | 3.47
CCCCc1nc(-c2nc(N)c3c(n2)NC(=O)C3(C)c2ccc(O)cc2)cn2ncnc12 (stereo not drawn) [Example 70-B, 4-Amino-2-(8-butyl-[1,2,4]triazolo[1,5-a]pyrazin-6-yl)-5-(4-hydroxyphenyl)-5-methyl-5,7-dihydro-6H-pyrrolo[2,3-d]pyrimidin-6-one] | 81 | 32 | 3.96
CCCCc1nc(-c2nc(N)c3c(n2)NC(=O)C3(C)c2ccc(O)c(F)c2)cn2ncnc12 (stereo not drawn) [Example 71-B, 4-Amino-2-(8-butyl-[1,2,4]triazolo[1,5-a]pyrazin-6-yl)-5-(3-fluoro-4-hydroxyphenyl)-5-methyl-5,7-dihydro-6H-pyrrolo[2,3-d]pyrimidin-6-one] | 81 | 30 | 4.08
CCCCc1nc(-c2nc(N)c3c(n2)NC(=O)C3(C)c2cc(O)c(Cl)cn2)cn2ccnc12 (stereo not drawn) [Example 72-B, 4-Amino-2-(8-butylimidazo[1,2-a]pyrazin-6-yl)-5-(5-chloro-4-hydroxypyridin-2-yl)-5-methyl-5,7-dihydro-6H-pyrrolo[2,3-d]pyrimidin-6-one] | 84 | 3460 | 4.62
CC1(c2ncc(Cl)c(O)c2Cl)C(=O)Nc2nc(-c3cn4ccnc4c(Cc4cc(F)cc(F)c4)n3)nc(N)c21 (stereo not drawn) [Example 73-A, 4-Amino-5-(3,5-dichloro-4-hydroxypyridin-2-yl)-2-{8-[(3,5-difluorophenyl)methyl]imidazo[1,2-a]pyrazin-6-yl}-5-methyl-5,7-dihydro-6H-pyrrolo[2,3-d]pyrimidin-6-one] | 81 | 694 | 6.01
CCCCc1nc(-c2nc(N)c3c(n2)NC(=O)C3(C)c2ccc(O)c(Cl)c2)cn2ncnc12 (stereo not drawn) [Example 74-B, 4-Amino-2-(8-butyl-[1,2,4]triazolo[1,5-a]pyrazin-6-yl)-5-(3-chloro-4-hydroxyphenyl)-5-methyl-5,7-dihydro-6H-pyrrolo[2,3-d]pyrimidin-6-one] | 122 | 131 | 6.17
CCCCc1nc(-c2nc(N)c3c(n2)NC(=O)C3(C)c2ccc(O)c(Cl)c2)cn2ccnc12 (stereo not drawn) [Example 75-B, 4-Amino-2-(8-butylimidazo[1,2-a]pyrazin-6-yl)-5-(3-chloro-4-hydroxyphenyl)-5-methyl-5,7-dihydro-6H-pyrrolo[2,3-d]pyrimidin-6-one] | 153 | 770 | 6.55
CCCCc1nc(-c2nc(N)c3c(n2)NC(=O)C3(C)c2ccc(C(F)(F)F)c(O)c2)cn2ccnc12 (stereo not drawn) [Example 76-B, 4-Amino-2-(8-butylimidazo[1,2-a]pyrazin-6-yl)-5-(3-hydroxy-4-(trifluoromethyl)phenyl)-5-methyl-5,7-dihydro-6H-pyrrolo[2,3-d]pyrimidin-6-one] | 110 | 547 | 7.89
CC1(c2ccc(O)c(Cl)c2)C(=O)Nc2nc(-c3cn4ccnc4c(CCC4CCCCC4)n3)nc(N)c21 (stereo not drawn) [Example 77-B, 4-Amino-5-(3-chloro-4-hydroxyphenyl)-2-(8-(2-cyclohexylethyl)imidazo[1,2-a]pyrazin-6-yl)-5-methyl-5,7-dihydro-6H-pyrrolo[2,3-d]pyrimidin-6-one] | 99 | 645 | 8.79
CC1(c2cccc(O)c2)C(=O)Nc2nc(-c3cn4ccnc4c(CCC(F)(F)C(F)(F)F)n3)nc(N)c21 (stereo not drawn) [Example 79-B, 4-Amino-5-(3-hydroxyphenyl)-5-methyl-2-(8-(3,3,4,4,4-pentafluorobutyl)imidazo[1,2-a]pyrazin-6-yl)-5,7-dihydro-6H-pyrrolo[2,3-d]pyrimidin-6-one] | 108 | 96 | 9.41
CC1(c2ccc(O)cc2)C(=O)Nc2nc(-c3cn4ncnc4c(CCC(F)(F)C(F)(F)F)n3)nc(N)c21 (stereo not drawn) [Example 80-B, 4-Amino-5-(4-hydroxyphenyl)-5-methyl-2-(8-(3,3,4,4,4-pentafluorobutyl)-[1,2,4]triazolo[1,5-a]pyrazin-6-yl)-5,7-dihydro-6H-pyrrolo[2,3-d]pyrimidin-6-one] | 70 | 19 | 9.98
CC1(c2ccc(O)cc2)C(=O)Nc2nc(-c3cn4ccnc4c(CCC(F)(F)C(F)(F)F)n3)nc(N)c21 (stereo not drawn) [Example 81-B, 4-Amino-5-(4-hydroxyphenyl)-5-methyl-2-(8-(3,3,4,4,4-pentafluorobutyl)imidazo[1,2-a]pyrazin-6-yl)-5,7-dihydro-6H-pyrrolo[2,3-d]pyrimidin-6-one] | 131 | 352 | 14
CC1(c2cccc(O)c2)C(=O)Nc2nc(-c3cn4ccnc4c(CC4CCCCC4)n3)nc(N)c21 (stereo not drawn) [Example 82-B, 4-Amino-2-(8-(cyclohexylmethyl)imidazo[1,2-a]pyrazin-6-yl)-5-(3-hydroxyphenyl)-5-methyl-5,7-dihydro-6H-pyrrolo[2,3-d]pyrimidin-6-one] | 111 | 207 | 0.402
CC1(c2cccc(O)c2)C(=O)Nc2nc(-c3cn4ccnc4c(CCC4CCCCC4)n3)nc(N)c21 (stereo not drawn) [Example 83-B, 4-Amino-2-(8-(2-cyclohexylethyl)imidazo[1,2-a]pyrazin-6-yl)-5-(3-hydroxyphenyl)-5-methyl-5,7-dihydro-6H-pyrrolo[2,3-d]pyrimidin-6-one] | 109 | 222 | 5.12
CC1(c2ccc(O)c(F)c2)C(=O)Nc2nc(-c3cn4ccnc4c(CCC4CCCCC4)n3)nc(N)c21 (stereo not drawn) [Example 84-B, 4-Amino-2-(8-(2-cyclohexylethyl)imidazo[1,2-a]pyrazin-6-yl)-5-(3-fluoro-4-hydroxyphenyl)-5-methyl-5,7-dihydro-6H-pyrrolo[2,3-d]pyrimidin-6-one] | 121 | 313 | 3.46
CC1(c2ccc(O)cc2)C(=O)Nc2nc(-c3cn4ccnc4c(CCC4CCCCC4)n3)nc(N)c21 (stereo not drawn) [Example 85-B, 4-Amino-2-(8-(2-cyclohexylethyl)imidazo[1,2-a]pyrazin-6-yl)-5-(4-hydroxyphenyl)-5-methyl-5,7-dihydro-6H-pyrrolo[2,3-d]pyrimidin-6-one] | 130 | 605 | 4.82
